Test systems include OVCAR-8; IGROV-1; U-251; SF-539; RXF 393; MDA-MB-435; DMS-273; HOP-62; DU-145; M14; M19-MEL; NCI-H23; LOX IMVI; MOLT-4; SK-MEL-5; Malme-3M; HCC 2998; UACC-62; OVCAR-3; NCI-H460.
What all share (assay): DTP human tumour cell line panel, 48 h

Here are results for three compounds from ChEMBL document CHEMBL1201862, “PubChem BioAssay data set” (2004).

The structures appear in SMILES notation.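 All cell lines were grown in 96-well plates and treated with compound for 48 hours. At the GI50, growth is halved.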 The source made the active and inactive calls. Rule as the data show it: active = GI50 up to about 1.1 µM and inactive = higher.

For the compound `Cc1c2cnccc2c(C)c2c1c1ccccc1n2CCCN`, the GI50 in the assay on OVCAR-8 was 0.259 µM (active); in the assay on IGROV-1, 0.506 µM (active); in the assay with U-251 it was 0.258 µM (active); in the assay with SF-539, 0.582 µM (active); with RXF 393, 0.301 µM (active); in the assay with MDA-MB-435 it was 0.129 µM (active). The GI50 in the assay on DMS-273 was 0.133 µM (active); in the assay on HOP-62 it was 0.637 µM (active); in the assay on DU-145, 0.104 µM (active); with M14, 0.276 µM (active); with M19-MEL, 0.262 µM (active); in the assay on NCI-H23 it was 0.474 µM (active). The GI50 in the assay with LOX IMVI is 0.109 µM (active); with MOLT-4, 0.0843 µM (active); with SK-MEL-5 it was 0.755 µM (active); with Malme-3M, 0.982 µM (active); with HCC 2998, 0.615 µM (active); with UACC-62 it was 0.693 µM (active).

On to `CC(=O)OCCOCNC(=S)N/N=C/c1ccc2ccccc2n1`, for which the GI50 with OVCAR-8 was 37.1 µM (inactive); in the assay on IGROV-1, 44.6 µM (inactive); with U-251, 29.2 µM (inactive); in the assay on SF-539, 46.9 µM (inactive); with RXF 393 it was 46.2 µM (inactive); with OVCAR-3, 35.3 µM (inactive). The GI50 was 36.1 µM (inactive) in the assay with DMS-273; 27.5 µM (inactive) in the assay on NCI-H460; 45.1 µM (inactive) with HOP-62; 32.5 µM (inactive) in the assay on M14; 28.6 µM (inactive) in the assay on M19-MEL; 73.1 µM (inactive) in the assay with NCI-H23. In addition, the GI50 is 43 µM (inactive) with LOX IMVI; > 100 µM (inactive) in the assay on MOLT-4; 23.9 µM (inactive) in the assay on SK-MEL-5; 55.5 µM (inactive) in the assay with Malme-3M; 31.7 µM (inactive) in the assay on HCC 2998; 21.8 µM (inactive) in the assay with UACC-62.

In the case of `COc1cc(OC)c2c(c1)C(=O)C(CC1(C)OCCCO1)=CC2=O`, the GI50 was 9.27 µM (inactive) in the assay on OVCAR-8; 17.9 µM (inactive) in the assay on IGROV-1; 17.4 µM (inactive) with U-251; 12.8 µM (inactive) in the assay on SF-539; 3.54 µM (inactive) in the assay on RXF 393; 8.55 µM (inactive) in the assay on OVCAR-3. Moreover, the GI50 is 7.48 µM (inactive) with DMS-273; 18.6 µM (inactive) in the assay with NCI-H460; 19.1 µM (inactive) in the assay with HOP-62; 13 µM (inactive) with M14; 3.37 µM (inactive) with M19-MEL; 13.2 µM (inactive) in the assay with NCI-H23. In addition, the GI50 with LOX IMVI is 4.34 µM (inactive); with MOLT-4, 2.05 µM (inactive); in the assay on SK-MEL-5 it was 8.04 µM (inactive); with Malme-3M, 8.45 µM (inactive); with HCC 2998 it was 17.9 µM (inactive); in the assay with UACC-62 it was 5 µM (inactive).

A word on the GI50: it is the concentration giving 50% growth inhibition.
